Laboratory results as given in patent US20200062719A1, “Application of Imidazopyridine Derivatives in Regenerative Medicine” (University of Heidelberg, priority 2018, published 2020).

Legend:
Oct4 = assay: Luciferase reporter assay in NCCIT-Oct4 cells; type: cell-based, human
Experimental: The ability of the lead compound to induce Oct4 at translational level was tested in a luciferase reporter cell line in human embryonic carcinoma NCCIT cells driven by Oct4 response elements (NCCIT-Oct4). The compound lead to a nearly 10-fold induction of Oct4 at 10 nM compared to untreated cells (FIG. 1B). Consequently, the lead compound was named “Oct4 inducing compound 3” (O4I3).
Luciferase reporter assay was performed using Beatle Juice Kit (PJK, Germany) according to the manufacturer's instruction. NCCIT-Oct and NCCIT-Nanog reporter cells were plated into a 24-well plate (100,000 cells/well) for 24 h. Cells were treated with compounds as indicated and harvested with luciferase lysis buffer (25 mM Tris phosphate buffer pH=7.8, 4 mM EGTA, 1% Triton X-100, 10% glycerol and 2 mM fresh DTT, filtered through 0.45 μm sterile filter) at 37° C. for 15 min. The protein concentration was determined by Bradford assay (Sigma, Germany). 100 μL reaction mixture containing luciferin and ATP was added to 20 μL cell lysis in a white plate (Gibco, Germany), incubated for 5 min and measured by a luminometer plate-reader. The activity was determined as percent luminous intensity of treated cells over control cells from at least five-independent experiments.

[1] = system: reprogramming-related proteins; assay: Phosphorylation microarray in NCCIT and JoPaca-1 cells; type: cell-based; settings: NCCIT and JoPaca-1, 1 μM, 24 hours
Experimental: Cells were analysed in the presence (24 hours O4I3 1 μM) or absence (NT) of O4I3.
The cellular responses to O4I3 was analyzed in two stem cell lines, NCCIT and JoPaca-1 (FIG. 10).

promoter of Oct4 = assay: ChIP-qPCR of H3K4Me3 at the promoter of Oct4 in reprogramming-resistant fibroblasts; type: cell-based, human; settings: reprogramming-resistant patient fibroblasts
From the text: The importance of active tri-methylation of histone H3 lysine 4 (H3K4Me3) in promoting transcription factors binding to an ‘open’ chromatin state and thereby initiation of reprogramming is known in the art. In good agreement, the inventors found the abundance of H3K4Me3 in O4I3-treated reprogramming-resistant fibroblasts by immunostaining (FIG. 14) and immunoblotting (FIG. 5B). To directly study if O4I3 facilitated the binding of H3K4Me3 to the promoter of Oct4, a CHIP-qPCR experiment was performed.
In reprogramming-resistant HF4, the level of H3K4Me3 at the promoter of OCT4 was increased by OSKM, but was still nearly 1,000-fold lower than that in PSCs (FIG. 19A). […] However, a clear influence on H3K4 methylation was not observed in the presence of KDM5B-, KDM5C-, or KDM5D-siRNA (FIG. 19A). […] Indeed, the reprogramming efficiency is negatively correlated with the expression of KDM5A in 11 HFs (FIG. 19D). Moreover, KDM5A siRNA increased the global level of H3K4Me3 in a dose-dependent manner (FIG. 19E). Of note, the alternation in the occupation of H3K27Me3 at the promoter of OCT4 was more refractory to chemical inhibition or genetic repression of KDM5s in the inventors' experiments (FIG. 19B). […]

KDM5C = target: T1, KDM5C (Homo sapiens, UniProt P41229); assay: KDM5C inhibition, enzyme immunoprecipitated from cells; type: biochemical
T1 construct: magnetic beads were used to immunoprecipitate the respective enzymes from 10^8 cells; endogenous in cells
From the text: (§1) In mammalian cells, the KDM5 family consists of four members, namely, KDM5A (known as JARID1A), KDM5B (known as JARID1B or PLU1), KDM5C (JARID1C), and KDM5D (JARID1D or SMCY). […] Next, the inventors tested four KDM chemical inhibitors. […] The inventors detected the induction of OCT4, SOX2, and E-Cadherin expression in JIB-04-treated HFs (FIG. 18D).
(§2) Epiquik histone demethylase (H3K4 specific) activity/inhibition assay kit (Epigentek, Biocat, Germany) was used to measure the protective effect of O4I3 and zolpidem on the methylation of H3K4. Their inhibitory effects on LSD1, KDM5s, and KDM4 were determined using Epigenase jarid demethylase activity/inhibition assay kit, Epigenase JMJD2 demethylase activity/inhibition assay kit and EpiQuik histone demethylase LSD1 activity/inhibition assay kit (Epigentek, Biocat, Germany). The total nuclear extraction was used according to manufacturer's instructions. For measuring KDM5A, KDM5B, KDM5C, and KDM5D activity, magnetic beads were used to immunoprecipitate the respective enzymes from 10^8 cells according to the manufacturer's instructions (Cell Signaling Technologies).

KDM5B = target: T2, KDM5B (Homo sapiens, UniProt Q9UGL1); assay: KDM5B inhibition, enzyme immunoprecipitated from cells; type: biochemical
T2 construct: magnetic beads were used to immunoprecipitate the respective enzymes from 10^8 cells; endogenous in cells
From the text: as §1, §2

T1 sequence (P41229 whole entry): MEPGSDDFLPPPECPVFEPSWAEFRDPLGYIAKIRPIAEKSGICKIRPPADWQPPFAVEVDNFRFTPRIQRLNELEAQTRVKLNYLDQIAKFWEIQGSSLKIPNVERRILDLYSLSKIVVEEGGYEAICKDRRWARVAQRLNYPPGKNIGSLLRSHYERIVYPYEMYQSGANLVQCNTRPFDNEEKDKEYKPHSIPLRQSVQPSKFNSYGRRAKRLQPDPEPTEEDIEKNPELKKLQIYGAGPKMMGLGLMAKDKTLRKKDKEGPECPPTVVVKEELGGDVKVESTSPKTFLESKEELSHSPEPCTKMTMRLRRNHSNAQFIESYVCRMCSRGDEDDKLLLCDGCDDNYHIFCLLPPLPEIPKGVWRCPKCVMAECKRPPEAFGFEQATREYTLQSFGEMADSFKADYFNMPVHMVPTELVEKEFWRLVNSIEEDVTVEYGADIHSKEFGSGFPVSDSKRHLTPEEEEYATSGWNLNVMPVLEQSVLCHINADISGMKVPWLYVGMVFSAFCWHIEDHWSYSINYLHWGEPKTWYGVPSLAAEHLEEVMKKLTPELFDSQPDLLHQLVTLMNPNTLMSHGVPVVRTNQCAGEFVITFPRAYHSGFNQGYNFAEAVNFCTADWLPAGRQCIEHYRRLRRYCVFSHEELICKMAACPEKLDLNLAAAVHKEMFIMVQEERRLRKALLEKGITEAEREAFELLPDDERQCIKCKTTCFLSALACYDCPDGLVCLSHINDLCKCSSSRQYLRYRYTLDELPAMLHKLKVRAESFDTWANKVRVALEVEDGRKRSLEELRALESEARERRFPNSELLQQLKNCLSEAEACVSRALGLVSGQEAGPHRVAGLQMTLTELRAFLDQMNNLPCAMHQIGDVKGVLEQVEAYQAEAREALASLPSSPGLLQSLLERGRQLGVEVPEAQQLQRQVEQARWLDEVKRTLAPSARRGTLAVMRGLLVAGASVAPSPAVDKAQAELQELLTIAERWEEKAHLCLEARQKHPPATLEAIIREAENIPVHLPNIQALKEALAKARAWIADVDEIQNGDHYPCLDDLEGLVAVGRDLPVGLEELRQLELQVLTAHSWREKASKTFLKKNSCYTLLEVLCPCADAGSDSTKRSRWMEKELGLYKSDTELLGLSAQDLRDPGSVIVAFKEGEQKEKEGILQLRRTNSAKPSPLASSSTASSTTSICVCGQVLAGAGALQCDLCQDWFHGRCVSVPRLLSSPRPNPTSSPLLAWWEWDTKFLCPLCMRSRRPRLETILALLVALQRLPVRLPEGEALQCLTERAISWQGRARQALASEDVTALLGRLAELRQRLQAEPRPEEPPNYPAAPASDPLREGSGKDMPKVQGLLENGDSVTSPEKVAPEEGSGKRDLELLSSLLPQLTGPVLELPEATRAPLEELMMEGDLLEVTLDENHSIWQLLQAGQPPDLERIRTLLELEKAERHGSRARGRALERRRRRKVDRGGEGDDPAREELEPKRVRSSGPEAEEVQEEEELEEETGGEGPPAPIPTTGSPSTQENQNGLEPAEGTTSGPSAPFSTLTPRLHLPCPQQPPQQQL
T2 sequence (Q9UGL1 whole entry): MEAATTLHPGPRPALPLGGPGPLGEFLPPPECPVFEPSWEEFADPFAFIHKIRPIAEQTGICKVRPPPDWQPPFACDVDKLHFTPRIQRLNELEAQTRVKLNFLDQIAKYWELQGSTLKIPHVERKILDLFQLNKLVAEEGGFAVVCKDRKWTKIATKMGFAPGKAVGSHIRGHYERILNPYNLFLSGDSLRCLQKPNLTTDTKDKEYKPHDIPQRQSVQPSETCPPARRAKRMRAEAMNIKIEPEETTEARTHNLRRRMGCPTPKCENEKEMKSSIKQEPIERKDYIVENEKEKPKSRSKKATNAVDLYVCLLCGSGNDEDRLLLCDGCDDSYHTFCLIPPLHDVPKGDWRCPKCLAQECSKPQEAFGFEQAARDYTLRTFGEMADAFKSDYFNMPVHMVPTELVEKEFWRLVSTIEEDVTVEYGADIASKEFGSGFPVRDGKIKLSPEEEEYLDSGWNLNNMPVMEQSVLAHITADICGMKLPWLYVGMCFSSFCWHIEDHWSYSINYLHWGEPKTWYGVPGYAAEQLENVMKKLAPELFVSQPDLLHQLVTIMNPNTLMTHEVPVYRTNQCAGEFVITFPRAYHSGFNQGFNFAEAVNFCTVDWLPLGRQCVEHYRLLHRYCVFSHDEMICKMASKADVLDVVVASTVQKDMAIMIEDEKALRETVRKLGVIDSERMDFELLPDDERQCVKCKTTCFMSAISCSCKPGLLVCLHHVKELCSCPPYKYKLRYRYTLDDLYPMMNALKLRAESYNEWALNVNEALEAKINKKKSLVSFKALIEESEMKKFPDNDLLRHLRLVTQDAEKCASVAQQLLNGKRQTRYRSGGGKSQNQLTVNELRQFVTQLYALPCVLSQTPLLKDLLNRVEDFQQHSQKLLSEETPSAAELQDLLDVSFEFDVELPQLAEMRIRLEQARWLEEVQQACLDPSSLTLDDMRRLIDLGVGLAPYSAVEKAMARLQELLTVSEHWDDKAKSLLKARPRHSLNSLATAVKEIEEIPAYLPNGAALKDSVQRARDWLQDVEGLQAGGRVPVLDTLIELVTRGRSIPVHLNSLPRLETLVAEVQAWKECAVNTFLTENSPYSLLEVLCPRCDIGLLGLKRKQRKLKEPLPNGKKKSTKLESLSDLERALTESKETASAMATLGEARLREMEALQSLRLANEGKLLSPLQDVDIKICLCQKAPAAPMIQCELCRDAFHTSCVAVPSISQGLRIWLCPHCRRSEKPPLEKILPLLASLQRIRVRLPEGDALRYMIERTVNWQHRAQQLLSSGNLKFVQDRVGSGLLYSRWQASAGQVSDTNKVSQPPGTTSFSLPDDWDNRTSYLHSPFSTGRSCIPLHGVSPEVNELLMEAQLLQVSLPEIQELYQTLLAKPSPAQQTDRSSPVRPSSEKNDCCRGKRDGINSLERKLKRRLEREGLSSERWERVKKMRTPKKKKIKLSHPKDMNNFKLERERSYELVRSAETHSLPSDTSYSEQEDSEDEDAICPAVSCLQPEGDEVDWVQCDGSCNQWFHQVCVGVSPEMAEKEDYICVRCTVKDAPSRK

## Cc1ccc(-c2cn3cc(C)ccc3n2)cc1 [O4I3, 6-methyl-2-(p-tolyl)imidazo[1,2-a]pyridine]
Oct4; 10 nM, NCCIT-Oct4 cells, 48 h
  induction of Oct4 compared to untreated cells: ~10 fold
Oct4; over 4 days
  time course of Oct4 activation: continuous and constant activation
[1]
  activation of Erk1: selectively activated
  activation of Erk2: not
Promoter of Oct4
  enrichment of H3K4Me3 at the promoter of Oct4: increased enrichment
KDM5C
  IC50 less potent than for KDM5A, KDM5C: 40 fold
KDM5B
  IC50 less potent than for KDM5A, KDM5B: 1,000 fold
